Where “and” joins values, the source holds several entries; their conditions need not be identical. Equal values may be shown once.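 These data come from cells grown in 96-well plates and exposed to compound for 48 hours at five concentrations. At the GI50, growth is halved. TGI: concentration producing complete growth inhibition.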
Tests used:
Assay in all cases: growth of human tumour cells (NCI), 48 h
[1] = test system: HCT-116 colon
[2] = test system: SNB-19 CNS
[3] = test system: MOLT-4 leukemia
[4] = test system: OVCAR-8 ovarian
[5] = test system: OVCAR-3 ovarian
[6] = test system: HT29 colon
[7] = test system: NCI-H460 lung
[8] = test system: U251 CNS
[9] = test system: SK-MEL-2 melanoma
[10] = test system: BT-549 breast

Compound: C=C1C(=O)OC2/C=C(\C=O)CC/C=C(\C)C(O)C[C@@H]12 (stereo partly specified)
- TGI [1]: 3.46 µM
- TGI [2]: 29.1 µM
- TGI [3]: 21.4 µM
- TGI [4]: 12 µM
- TGI [5]: 14.5 µM
- TGI [6]: 11.6 µM
- TGI [7]: 27.4 µM
- TGI [8]: 35.4 µM
- TGI [9]: 25 µM

Compound: C1=CC=C2NCCOCCNC3=CC=CC=CC3=NCCOCCN=C2C=C1
- TGI [1]: > 100 µM
- TGI [2]: > 100 µM
- TGI [3]: > 100 µM
- TGI [4]: > 100 µM
- TGI [5]: > 100 µM
- TGI [6]: 62.6 µM
- TGI [7]: > 100 µM
- TGI [8]: > 100 µM
- TGI [9]: > 100 µM

Compound: CCOc1ccccc1NC(=O)CCc1nc(=S)[nH][nH]1
- TGI [1]: > 100 µM
- TGI [2]: > 100 µM
- TGI [3]: > 100 µM
- TGI [4]: > 100 µM
- TGI [5]: > 100 µM
- TGI [6]: > 100 µM
- TGI [7]: > 100 µM
- TGI [8]: > 100 µM
- TGI [9]: > 100 µM

Compound: Cc1c2cc[n+](C)cc2c(C)c2c1[nH]c1ccc(O)c(OCC(F)(F)F)c12
- TGI [1]: 12.1 µM
- TGI [2]: 5.33 µM
- TGI [3]: 22.1 µM
- TGI [4]: 25.5 µM
- TGI [5]: 7.4 µM
- TGI [6]: > 55 µM
- TGI [7]: 48.6 µM
- TGI [8]: 7 µM
- TGI [9]: 17.6 µM

Compound: COC(=O)c1nc(N)[nH]c(=O)c1CCCCCc1c(C(=O)OC)nc(N)[nH]c1=O
- TGI [1]: > 50 µM
- TGI [2]: > 50 µM
- TGI [4]: > 50 µM
- TGI [5]: > 50 µM
- TGI [6]: > 50 µM
- TGI [7]: > 50 µM
- TGI [8]: > 50 µM
- TGI [9]: > 50 µM

Compound: O=C1CCC(O)=C1O
- TGI [1]: > 100 µM
- TGI [2]: > 100 µM
- TGI [3]: > 100 µM
- TGI [4]: > 100 µM
- TGI [5]: > 100 µM
- TGI [6]: > 100 µM
- TGI [7]: > 100 µM
- TGI [8]: > 100 µM
- TGI [9]: > 100 µM

Compound: CC(=O)O[C@@H]1C2C(=O)OC(=O)C2C2CCC[C@]23O[C@H]13 (stereo partly specified)
- TGI [1]: > 100 µM
- TGI [2]: > 100 µM
- TGI [3]: > 100 µM
- TGI [4]: > 100 µM
- TGI [5]: > 100 µM
- TGI [7]: > 100 µM
- TGI [8]: > 100 µM
- TGI [9]: > 100 µM

Compound: N#CC(NNC(=O)c1ccccc1O)c1cccc(O)c1 (stereo unspecified)
- TGI [1]: > 100 µM
- TGI [3]: > 100 µM
- TGI [4]: > 100 µM
- TGI [5]: > 100 µM
- TGI [6]: > 100 µM
- TGI [7]: > 100 µM
- TGI [8]: > 100 µM
- TGI [9]: > 100 µM

Compound: S=c1nc(-c2cccnc2)[nH][nH]1
- TGI [1]: > 100 µM
- TGI [2]: > 100 µM
- TGI [6]: > 100 µM
- TGI [7]: > 100 µM
- TGI [8]: > 100 µM
- TGI [9]: > 100 µM

Compound: Cc1c(Cl)cccc1NC(=O)CC1C(=O)Nc2ccccc2S1(=O)=O (stereo unspecified)
- TGI [1]: 30.3 µM
- TGI [2]: 52.3 µM
- TGI [3]: 24.3 µM
- TGI [4]: 34.5 µM
- TGI [5]: 31.7 µM
- TGI [6]: 38.2 µM
- TGI [7]: 30 µM
- TGI [8]: 26.5 µM
- TGI [9]: 45.9 µM

Compound: COc1ccc(/C=C2\C(=O)N(C(=O)Cc3ccccc3)N=C2C)cc1OC
- TGI [1]: > 100 µM
- TGI [2]: > 100 µM
- TGI [3]: > 100 µM
- TGI [4]: > 100 µM
- TGI [5]: > 100 µM
- TGI [6]: > 100 µM
- TGI [9]: > 100 µM

Compound: CCOC(=O)c1cc(/C=C/C(C)=C/C(=O)OC)n(C)c1C
- TGI [2]: > 100 µM
- TGI [3]: > 100 µM
- TGI [4]: > 100 µM
- TGI [5]: > 100 µM
- TGI [6]: > 100 µM
- TGI [7]: > 100 µM
- TGI [8]: > 100 µM

Compound: BrC1(Br)C2/C=C\CCCCC21 (stereo unspecified)
- TGI [1]: > 100 µM
- TGI [2]: > 100 µM
- TGI [3]: > 100 µM
- TGI [4]: > 100 µM
- TGI [6]: > 100 µM
- TGI [7]: > 100 µM
- TGI [8]: > 100 µM
- TGI [9]: > 100 µM

Compound: CCOC(=O)[C@H]1Nc2ccc(OC)cc2C2c3ccccc3CC21 (stereo partly specified)
- TGI [1]: > 100 µM
- TGI [2]: > 100 µM
- TGI [3]: > 100 µM
- TGI [4]: > 100 µM
- TGI [5]: > 100 µM
- TGI [6]: > 100 µM
- TGI [7]: > 100 µM
- TGI [8]: > 100 µM
- TGI [9]: > 100 µM

Compound: c1cc(CNC2C3CCC(C3)C2c2c[nH]c3ccccc23)cc(CNC2C3CCC(C3)C2c2c[nH]c3ccccc23)c1 (stereo unspecified)
- TGI [10]: 3.24 µM
- TGI [2]: 2.26 µM
- GI50 [3]: 1.07 µM
- TGI [3]: 3.38 µM
- GI50 [6]: 0.331 µM and 0.154 µM
- GI50 [7]: 0.313 µM
- TGI [7]: > 100 µM
- TGI [8]: 1.32 µM
- TGI [9]: 3.11 µM

Compound: CC(=O)OC1[C@H]2c3cc4c(cc3CN3CCC(=C[C@@H]1O)C23)OCO4 (stereo partly specified)
- TGI [2]: > 100 µM
- TGI [3]: > 100 µM
- TGI [4]: > 100 µM
- TGI [5]: > 100 µM
- TGI [6]: > 100 µM
- TGI [7]: > 100 µM
- TGI [8]: > 100 µM

Compound: COc1cc(Br)c(C=Nc2cccc3ccc(OS(=O)(=O)c4cccc([N+](=O)[O-])c4)cc23)cc1OC
- TGI [1]: > 100 µM
- TGI [2]: > 100 µM
- TGI [3]: > 100 µM
- TGI [4]: 86.5 µM
- TGI [5]: > 100 µM
- TGI [6]: > 100 µM
- TGI [7]: > 100 µM
- TGI [8]: > 100 µM
- TGI [9]: > 100 µM

Compound: Nc1nc(CCC(=O)Nc2cccc(C(F)(F)F)c2)cc(-c2ccc3ccccc3c2)n1
- TGI [1]: > 100 µM
- TGI [2]: > 100 µM
- TGI [3]: > 100 µM
- TGI [4]: > 100 µM
- TGI [5]: > 100 µM
- TGI [6]: > 100 µM
- TGI [7]: > 100 µM
- TGI [8]: > 100 µM
- TGI [9]: > 100 µM

Compound: CCOC(=O)C(=O)Nc1c(C(C)C)cccc1C(C)C
- TGI [1]: > 100 µM
- TGI [2]: > 100 µM
- TGI [3]: > 100 µM
- TGI [4]: > 100 µM
- TGI [5]: > 100 µM
- TGI [6]: > 100 µM
- TGI [7]: > 100 µM
- TGI [8]: > 100 µM
- TGI [9]: > 100 µM

Compound: COc1ccc(CN2c3ccccc3CCc3ccccc32)cc1F
- GI50 [1]: 0.413 µM
- TGI [1]: > 100 µM
- GI50 [10]: 0.776 µM
- TGI [10]: 41.2 µM
- GI50 [2]: 0.697 µM
- TGI [2]: > 100 µM
- GI50 [3]: 0.554 µM
- TGI [3]: > 100 µM
- GI50 [4]: 0.88 µM
- TGI [4]: > 100 µM
- GI50 [5]: 0.285 µM
- TGI [5]: 0.785 µM
- GI50 [6]: 0.32 µM
- TGI [6]: 1.9 µM
- GI50 [7]: 0.419 µM
- TGI [7]: > 100 µM
- GI50 [8]: 0.496 µM
- TGI [8]: > 100 µM

Compound: C=C=C(C(=O)OC)S(=O)c1ccc([N+](=O)[O-])cc1[N+](=O)[O-] (stereo unspecified)
- TGI [1]: 50.3 µM
- TGI [2]: > 100 µM
- TGI [3]: 50.3 µM
- TGI [4]: 55.1 µM
- TGI [5]: 63.1 µM
- TGI [6]: 52.9 µM
- TGI [7]: > 91.2 µM
- TGI [8]: 62.7 µM
- TGI [9]: > 79.8 µM

Compound: CC1(C)C2CCC3(C2)CS(=O)(=O)N2OC231 (stereo unspecified)
- TGI [1]: > 100 µM
- TGI [2]: > 100 µM
- TGI [4]: 67.2 µM
- TGI [5]: 33.2 µM
- TGI [6]: 31.8 µM
- TGI [7]: 37.1 µM
- TGI [8]: > 100 µM
- TGI [9]: 39.3 µM

Compound: C[C-](O)O.O/C(=C\[C-](O)c1ccccc1)c1ccccc1.O/C(=C\[C-](O)c1ccccc1)c1ccccc1.[Nd+3] (stereo unspecified)
- GI50 [1]: 4.24 µM
- TGI [1]: 16.5 µM
- GI50 [2]: 7.83 µM
- TGI [2]: 50 µM
- GI50 [3]: 3.89 µM
- TGI [3]: 28.7 µM
- GI50 [4]: 4.48 µM
- TGI [4]: 55 µM
- GI50 [5]: 0.363 µM
- TGI [5]: 27.4 µM
- GI50 [6]: 10.6 µM
- TGI [6]: 22.5 µM
- GI50 [7]: 4.99 µM
- TGI [7]: 71 µM
- GI50 [8]: 4.46 µM
- TGI [8]: 22.1 µM
- GI50 [9]: 13.1 µM
- TGI [9]: 34.4 µM
